Laboratory results published in ChEMBL document CHEMBL1201862, “PubChem BioAssay data set” (2004).
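Growth conditions: 96-well plates. Treatment: test compound, 48 hours, 5 concentrations. Analysis: linear interpolation between bracketing concentrations; unreached endpoints set to highest concentration. GI50 is the concentration that inhibits growth by half.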 Active and inactive are the calls of the source. Cut-off read from the data, not from the text of the source: active = GI50 up to about 1.1 µM and inactive = higher.

Assays:
Test in all cases: NCI-60 cell line screen, 48 h
HCT-15 = tested on: HCT-15
SNB-19 = tested on: SNB-19
HOP-62 = tested on: HOP-62
OVCAR-3 = tested on: OVCAR-3
RXF 393 = tested on: RXF 393
SF-268 = tested on: SF-268
M14 = tested on: M14
SW-620 = tested on: SW-620
OVCAR-4 = tested on: OVCAR-4
SN12C = tested on: SN12C
CCRF-CEM = tested on: CCRF-CEM
SF-539 = tested on: SF-539
SK-MEL-5 = tested on: SK-MEL-5
SR = tested on: SR
CAKI-1 = tested on: CAKI-1
A498 = tested on: A498

SMILES	GI50 (HCT-15) [µM]	GI50 (SNB-19)	GI50 (HOP-62)	GI50 (OVCAR-3)	GI50 (RXF 393)	GI50 (SF-268)	GI50 (M14)	GI50 (SW-620)	GI50 (OVCAR-4)	GI50 (SN12C)	GI50 (CCRF-CEM)	GI50 (SF-539)	GI50 (SK-MEL-5)	GI50 (SR)	GI50 (CAKI-1)	GI50 (A498)
O=C1c2ccccc2-c2cccc3ccc(Cc4ccccc4)c1c23	> 100	> 100 µM (inactive)	> 100 µM (inactive)	> 100 µM (inactive)	> 100 µM (inactive)	> 100 µM (inactive)	> 100 µM (inactive)	> 100 µM (inactive)	84.3 µM (inactive)	> 100 µM (inactive)	> 100 µM (inactive)	> 100 µM (inactive)	> 100 µM (inactive)	–	–	–
CCCN1C(=O)C/C(=C\C(C)=O)Nc2ccccc21	> 100	> 100 µM (inactive)	> 100 µM (inactive)	> 100 µM (inactive)	> 100 µM (inactive)	> 100 µM (inactive)	> 100 µM (inactive)	> 100 µM (inactive)	> 100 µM (inactive)	> 100 µM (inactive)	> 100 µM (inactive)	> 100 µM (inactive)	> 100 µM (inactive)	> 100 µM (inactive)	> 100 µM (inactive)	–
O=c1cc2ccccc2nn1-c1ccccc1Cl	92.5	> 100 µM (inactive)	> 100 µM (inactive)	81.3 µM (inactive)	–	85.7 µM (inactive)	> 100 µM (inactive)	> 100 µM (inactive)	> 100 µM (inactive)	> 100 µM (inactive)	86.3 µM (inactive)	> 100 µM (inactive)	69 µM (inactive)	–	> 100 µM (inactive)	> 100 µM (inactive)
CN(C)CCCNc1ccnc2c([N+](=O)[O-])cccc12	22.2	23.4 µM (inactive)	29.3 µM (inactive)	3.56 µM (inactive)	–	19.1 µM (inactive)	29.2 µM (inactive)	15.2 µM (inactive)	15.2 µM (inactive)	14.6 µM (inactive)	34.3 µM (inactive)	20.7 µM (inactive)	–	27.9 µM (inactive)	35.3 µM (inactive)	–
N#C/N=C1\NCCC(=O)N1CCc1c[nH]c2ccccc12	> 100	> 100 µM (inactive)	> 100 µM (inactive)	> 100 µM (inactive)	> 100 µM (inactive)	> 100 µM (inactive)	> 100 µM (inactive)	> 100 µM (inactive)	> 100 µM (inactive)	> 100 µM (inactive)	> 100 µM (inactive)	> 100 µM (inactive)	> 100 µM (inactive)	> 100 µM (inactive)	–	–
CN(C)CCC(/C=C/c1ccccc1)=N\Nc1ccc(Cl)cc1	3.01	11 µM (inactive)	1.8 µM (inactive)	8.69 µM (inactive)	6.05 µM (inactive)	2.07 µM (inactive)	3.18 µM (inactive)	3.87 µM (inactive)	5.21 µM (inactive)	2.29 µM (inactive)	2.96 µM (inactive)	2.25 µM (inactive)	14.7 µM (inactive)	–	–	7.66 µM (inactive)
O=C1/C(=N\O)S(=O)(=O)c2ccccc21	> 100	> 100 µM (inactive)	> 100 µM (inactive)	–	> 100 µM (inactive)	> 100 µM (inactive)	> 100 µM (inactive)	> 100 µM (inactive)	> 100 µM (inactive)	> 100 µM (inactive)	> 100 µM (inactive)	> 100 µM (inactive)	> 100 µM (inactive)	> 100 µM (inactive)	> 100 µM (inactive)	> 100 µM (inactive)
N=C(N)NS(=O)(=O)c1ccc(Nc2c3ccccc3nc3c(C(=O)Nc4ccc(S(N)(=O)=O)cc4)cccc23)cc1	> 100	37 µM (inactive)	> 100 µM (inactive)	36.8 µM (inactive)	95.3 µM (inactive)	98.9 µM (inactive)	> 100 µM (inactive)	> 100 µM (inactive)	> 100 µM (inactive)	> 100 µM (inactive)	71.3 µM (inactive)	52.5 µM (inactive)	78.9 µM (inactive)	–	> 100 µM (inactive)	> 100 µM (inactive)
COc1ccc2c(c1)OCCCN(C)OC2c1ccccc1 (centres undefined)	> 100	> 100 µM (inactive)	–	> 100 µM (inactive)	> 100 µM (inactive)	> 100 µM (inactive)	–	> 100 µM (inactive)	–	> 100 µM (inactive)	–	> 100 µM (inactive)	> 100 µM (inactive)	> 100 µM (inactive)	> 100 µM (inactive)	–
O=C(c1ccccc1)c1c(-c2ccccc2)sc2nc3ccccc3nc12	> 100	55 µM (inactive)	34.8 µM (inactive)	> 100 µM (inactive)	45.4 µM (inactive)	> 100 µM (inactive)	> 100 µM (inactive)	> 100 µM (inactive)	37.8 µM (inactive)	> 100 µM (inactive)	> 100 µM (inactive)	47.9 µM (inactive)	80.9 µM (inactive)	–	> 100 µM (inactive)	> 100 µM (inactive)
COC1=CC(=O)c2c(cc3c(c2O)-c2c(OC)cc4cc5c(c(O)c4c2OC(=O)CC(C)(O)C3)C(=O)CC(C)(O)C5)C1=O (centres undefined)	1.95	1.71 µM (inactive)	1.21 µM (inactive)	0.577 µM (active)	2.05 µM (inactive)	2.97 µM (inactive)	1.25 µM (inactive)	2.37 µM (inactive)	3.15 µM (inactive)	1.8 µM (inactive)	1.95 µM (inactive)	1.57 µM (inactive)	0.237 µM (active)	2.02 µM (inactive)	2.23 µM (inactive)	2.48 µM (inactive)
Cc1cc(=O)cc2sc3cc(Cl)ccc3nc1-2	3.95	5.93 µM (inactive)	15.6 µM (inactive)	8.89 µM (inactive)	4.76 µM (inactive)	6.84 µM (inactive)	4.4 µM (inactive)	6.9 µM (inactive)	22.2 µM (inactive)	7.45 µM (inactive)	1.39 µM (inactive)	7.66 µM (inactive)	3.65 µM (inactive)	3.07 µM (inactive)	19.7 µM (inactive)	19.9 µM (inactive)
Cc1cc([N+](=O)[O-])ccc1Nc1cccc(Cl)c1C	16.8	19.1 µM (inactive)	14.7 µM (inactive)	13.7 µM (inactive)	17.7 µM (inactive)	17 µM (inactive)	15.5 µM (inactive)	24.3 µM (inactive)	16.5 µM (inactive)	16.7 µM (inactive)	16.5 µM (inactive)	–	15.6 µM (inactive)	14.7 µM (inactive)	11.6 µM (inactive)	15.3 µM (inactive)
ClCCCCOC1CCCCO1 (centres undefined)	> 100	> 100 µM (inactive)	> 100 µM (inactive)	> 100 µM (inactive)	> 100 µM (inactive)	> 100 µM (inactive)	> 100 µM (inactive)	> 100 µM (inactive)	> 100 µM (inactive)	> 100 µM (inactive)	–	> 100 µM (inactive)	> 100 µM (inactive)	–	> 100 µM (inactive)	> 100 µM (inactive)
COC(=O)C(=O)C(C#N)c1c(Cl)cccc1Cl (centres undefined)	> 100	> 100 µM (inactive)	> 100 µM (inactive)	> 100 µM (inactive)	> 100 µM (inactive)	> 100 µM (inactive)	> 100 µM (inactive)	> 100 µM (inactive)	> 100 µM (inactive)	> 100 µM (inactive)	–	> 100 µM (inactive)	> 100 µM (inactive)	–	> 100 µM (inactive)	> 100 µM (inactive)
C[n+]1c2ccccc2c(/C=N\NS(=O)(=O)c2ccc(O)c(C(=O)O)c2)c2ccccc21	38.7	67.9 µM (inactive)	> 100 µM (inactive)	49.1 µM (inactive)	32.7 µM (inactive)	40.7 µM (inactive)	64.1 µM (inactive)	41.1 µM (inactive)	> 100 µM (inactive)	67.8 µM (inactive)	21.8 µM (inactive)	63.4 µM (inactive)	39.8 µM (inactive)	–	28.2 µM (inactive)	37.6 µM (inactive)
O=C1C2Cc3ccccc3CN2C(=O)N1CCN1CCOCC1 (centres undefined)	> 100	> 100 µM (inactive)	> 100 µM (inactive)	> 100 µM (inactive)	–	> 100 µM (inactive)	> 100 µM (inactive)	> 100 µM (inactive)	> 100 µM (inactive)	> 100 µM (inactive)	> 100 µM (inactive)	> 100 µM (inactive)	> 100 µM (inactive)	> 100 µM (inactive)	> 100 µM (inactive)	> 100 µM (inactive)
COC(=O)C1C=CCON2CCc3c(n(C)c4ccccc34)C12 (centres undefined)	> 100	> 100 µM (inactive)	> 100 µM (inactive)	> 100 µM (inactive)	> 100 µM (inactive)	> 100 µM (inactive)	> 100 µM (inactive)	> 100 µM (inactive)	> 100 µM (inactive)	> 100 µM (inactive)	> 100 µM (inactive)	> 100 µM (inactive)	> 100 µM (inactive)	> 100 µM (inactive)	> 100 µM (inactive)	46.6 µM (inactive)
CN(C)CCCCC1CCN(CC(=O)N2c3ccccc3NC(=O)c3ccccc32)CC1	–	> 100 µM (inactive)	> 100 µM (inactive)	> 100 µM (inactive)	–	> 100 µM (inactive)	28.1 µM (inactive)	> 100 µM (inactive)	> 100 µM (inactive)	> 100 µM (inactive)	69.8 µM (inactive)	> 100 µM (inactive)	> 100 µM (inactive)	> 100 µM (inactive)	> 100 µM (inactive)	> 100 µM (inactive)
